Reference: patent publication US20260285850A1, “SUBSTITUTED OXAZOLIDINONES AND IMIDAZOLINONES AS HERBICIDES” (FMC CORPORATION, priority 2023, published 2026)

Assays:
Format in all cases: in vivo
[1] = test system: barnyardgrass (Echinochloa crus-galli); assay: Test A preemergence soil spray, visual injury rating 0-100; details: 10 days, 0 = no effect, 100 = complete control
In short: (§1)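 Compound in a non-phytotoxic, surfactant-containing solvent is applied either as a directed soil spray before seedlings emerge or onto emerged plants 2-10 cm tall; pots hold a loam-sand blend. Plants grow 10 days under greenhouse conditions and are rated by eye against untreated controls (0 no effect, 100 complete control).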

[2] = test system: blackgrass (Alopecurus myosuroides); assay: as above; details: 10 days, 0 = no effect, 100 = complete control
In short: as §1

corn (Zea mays) [3] = assay: as above; details: 10 days, 0 = no effect, 100 = complete control
In short: as §1

[4] = test system: foxtail, giant (giant foxtail, Setaria faberi); assay: as above; details: 10 days, 0 = no effect, 100 = complete control
In short: as §1

kochia (Bassia scoparia) [5] = assay: as above; details: 10 days, 0 = no effect, 100 = complete control
In short: as §1

[6] = test system: oat, wild (wild oat, Avena fatua); assay: as above; details: 10 days, 0 = no effect, 100 = complete control
In short: as §1

[7] = test system: palmer (palmer amaranth, palmer pigweed, Amaranthus palmeri); assay: as above; details: 10 days, 0 = no effect, 100 = complete control
In short: as §1

[8] = test system: ragweed (common ragweed, Ambrosia artemisiifolia); assay: as above; details: 10 days, 0 = no effect, 100 = complete control
In short: as §1

[9] = test system: ryegrass, Italian (italian ryegrass, Lolium multiflorum); assay: as above; details: 10 days, 0 = no effect, 100 = complete control
In short: as §1

soybean (Glycine max) [10] = assay: as above; details: 10 days, 0 = no effect, 100 = complete control
In short: as §1

[11] = test system: wheat (Triticum aestivum); assay: as above; details: 10 days, 0 = no effect, 100 = complete control
In short: as §1

[12] = test system: barnyardgrass (Echinochloa crus-galli); assay: Test A postemergence application, visual injury rating 0-100; details: Postemergence, 10 days, 0 is no effect, 100 is complete control
In short: as §1

[13] = test system: blackgrass (Alopecurus myosuroides); assay: as above; details: Postemergence, 10 days, 0 is no effect, 100 is complete control
In short: as §1

corn (Zea mays) [14] = assay: as above; details: Postemergence, 10 days, 0 is no effect, 100 is complete control
In short: as §1

[15] = test system: foxtail, giant (giant foxtail, Setaria faberi); assay: as above; details: 10 days, 0 is no effect, 100 is complete control
In short: as §1

[16] = test system: galium (catchweed bedstraw, Galium aparine); assay: as above; details: Postemergence, 10 days, 0 is no effect, 100 is complete control
In short: as §1

[17] = test system: horseweed (Erigeron canadensis); assay: as above; details: Postemergence, 10 days, 0 is no effect, 100 is complete control
In short: as §1

kochia (Bassia scoparia) [18] = assay: as above; details: Postemergence, 10 days, 0 is no effect, 100 is complete control
In short: as §1

[19] = test system: oat, wild (wild oat, Avena fatua); assay: as above; details: Postemergence, 10 days, 0 is no effect, 100 is complete control
In short: as §1

[20] = test system: palmer (palmer amaranth, palmer pigweed, Amaranthus palmeri); assay: as above; details: Postemergence, 10 days, 0 is no effect, 100 is complete control
In short: as §1

[21] = test system: ragweed (common ragweed, Ambrosia artemisiifolia); assay: as above; details: Postemergence, 10 days, 0 is no effect, 100 is complete control
In short: as §1

[22] = test system: ryegrass, Italian (italian ryegrass, Lolium multiflorum); assay: as above; details: Postemergence, 10 days, 0 is no effect, 100 is complete control
In short: as §1

soybean (Glycine max) [23] = assay: as above; details: Postemergence, 10 days, 0 is no effect, 100 is complete control
In short: as §1

[24] = test system: wheat (Triticum aestivum); assay: as above; details: Postemergence, 10 days, 0 is no effect, 100 is complete control
In short: as §1

[25] = test system: barnyardgrass (Echinochloa crusgalli); assay: Test B flooded paddy test, visual plant response rating 0-100; details: 250 g ai/ha, Flood, applied to paddy water, evaluated after 13 days
In short: (§2)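 Each species was raised to two leaves before flooding to a 3 cm depth and dosing the water with compound. Injury was assessed by eye after 13 days under greenhouse conditions.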

[26] = test system: ducksalad (Heteranthera limosa); assay: as above; details: 250 g ai/ha, Flood, applied to paddy water, evaluated after 13 days
In short: as §2

rice (Oryza sativa) = assay: as above; details: 250 g ai/ha, Flood, applied to paddy water, evaluated after 13 days
In short: as §2

[27] = test system: sedge, umbrella (small-flower umbrella sedge, Cyperus difformis); assay: as above; details: 250 g ai/ha, Flood, applied to paddy water, evaluated after 13 days
In short: as §2

Structure (SMILES): CC1(C(=O)N[C@H]2C=C[C@@H](C(=O)O)C2)CN(c2cc(F)cc(F)c2)C(=O)O1 (stereo partly drawn) [Compound 51, (1S,4R)-4-[[[3-(3,5-Difluorophenyl)-5-methyl-2-oxo-5-oxazolidinyl]carbonyl]amino]-2-cyclopentene-1-carboxylic acid]
- Barnyardgrass plant response rating (0 to 100 scale) ([1]; 125 g ai/ha): 100
- Barnyardgrass plant response rating (0 to 100 scale) ([1]; 500 g ai/ha): 100
- Blackgrass plant response rating (0 to 100 scale) ([2]; 125 g ai/ha): 80
- Blackgrass plant response rating (0 to 100 scale) ([2]; 500 g ai/ha): 90
- Corn plant response rating (0 to 100 scale) (corn (Zea mays) [3]; 125 g ai/ha): 90
- Corn plant response rating (0 to 100 scale) (corn (Zea mays) [3]; 500 g ai/ha): 90
- Foxtail, Giant plant response rating (0 to 100 scale) ([4]; 125 g ai/ha): 90
- Foxtail, Giant plant response rating (0 to 100 scale) ([4]; 500 g ai/ha): 100
- Kochia plant response rating (0 to 100 scale) (kochia (Bassia scoparia) [5]; 125 g ai/ha): 90
- Kochia plant response rating (0 to 100 scale) (kochia (Bassia scoparia) [5]; 500 g ai/ha): 100
- Oat, Wild plant response rating (0 to 100 scale) ([6]; 125 g ai/ha): 90
- Oat, Wild plant response rating (0 to 100 scale) ([6]; 500 g ai/ha): 90
- Amaranth, Palmer plant response rating (0 to 100 scale) ([7]; 125 g ai/ha): 90
- Amaranth, Palmer plant response rating (0 to 100 scale) ([7]; 500 g ai/ha): 100
- Ragweed plant response rating (0 to 100 scale) ([8]; 125 g ai/ha): 70
- Ragweed plant response rating (0 to 100 scale) ([8]; 500 g ai/ha): 80
- Ryegrass, Italian plant response rating (0 to 100 scale) ([9]; 125 g ai/ha): 90
- Ryegrass, Italian plant response rating (0 to 100 scale) ([9]; 500 g ai/ha): 100
- Soybean plant response rating (0 to 100 scale) (soybean (Glycine max) [10]; 125 g ai/ha): 70
- Soybean plant response rating (0 to 100 scale) (soybean (Glycine max) [10]; 500 g ai/ha): 100
- Wheat plant response rating (0 to 100 scale) ([11]; 125 g ai/ha): 100
- Wheat plant response rating (0 to 100 scale) ([11]; 500 g ai/ha): 100
- Barnyardgrass plant response rating (0 to 100 scale) ([12]; 125 g ai/ha): 100
- Barnyardgrass plant response rating (0 to 100 scale) ([12]; 500 g ai/ha): 100
- Blackgrass plant response rating (0 to 100 scale) ([13]; 125 g ai/ha): 90
- Blackgrass plant response rating (0 to 100 scale) ([13]; 500 g ai/ha): 100
- Corn plant response rating (0 to 100 scale) (corn (Zea mays) [14]; 125 g ai/ha): 90
- Corn plant response rating (0 to 100 scale) (corn (Zea mays) [14]; 500 g ai/ha): 90
- Foxtail, Giant plant response rating (0 to 100 scale) ([15]; 125 g ai/ha): 90
- Foxtail, Giant plant response rating (0 to 100 scale) ([15]; 500 g ai/ha): 90
- Galium plant response rating (0 to 100 scale) ([16]; 125 g ai/ha): 70
- Galium plant response rating (0 to 100 scale) ([16]; 500 g ai/ha): 70
- Horseweed plant response rating (0 to 100 scale) ([17]; 125 g ai/ha): 80
- Horseweed plant response rating (0 to 100 scale) ([17]; 500 g ai/ha): 100
- Kochia plant response rating (0 to 100 scale) (kochia (Bassia scoparia) [18]; 125 g ai/ha): 80
- Kochia plant response rating (0 to 100 scale) (kochia (Bassia scoparia) [18]; 500 g ai/ha): 80
- Oat, Wild plant response rating (0 to 100 scale) ([19]; 125 g ai/ha): 90
- Oat, Wild plant response rating (0 to 100 scale) ([19]; 500 g ai/ha): 90
- Amaranth, Palmer / Pigweed, Palmer plant response rating (0 to 100 scale) ([20]; 125 g ai/ha): 90
- Amaranth, Palmer / Pigweed, Palmer plant response rating (0 to 100 scale) ([20]; 500 g ai/ha): 90
- Ragweed plant response rating (0 to 100 scale) ([21]; 125 g ai/ha): 60
- Ragweed plant response rating (0 to 100 scale) ([21]; 500 g ai/ha): 70
- Ryegrass, Italian plant response rating (0 to 100 scale) ([22]; 125 g ai/ha): 70
- Ryegrass, Italian plant response rating (0 to 100 scale) ([22]; 500 g ai/ha): 70
- Soybean plant response rating (0 to 100 scale) (soybean (Glycine max) [23]; 125 g ai/ha): 70
- Soybean plant response rating (0 to 100 scale) (soybean (Glycine max) [23]; 500 g ai/ha): 100
- Wheat plant response rating (0 to 100 scale) ([24]; 125 g ai/ha): 90
- Wheat plant response rating (0 to 100 scale) ([24]; 500 g ai/ha): 90
- Plant response rating, Barnyardgrass (0 to 100 scale, 0 is no effect and 100 is complete control) [25]: 75
- Plant response rating, Ducksalad (0 to 100 scale, 0 is no effect and 100 is complete control) [26]: 60
- Plant response rating, Rice (0 to 100 scale, 0 is no effect and 100 is complete control) (rice (Oryza sativa)): 60
- Plant response rating, Sedge, Umbrella (0 to 100 scale, 0 is no effect and 100 is complete control) [27]: 60
